Reference: ChEMBL document CHEMBL1201862, “PubChem BioAssay data set” (2004)
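All cell lines were grown in 96-well plates and treated with compound for 48 hours. GI50 = concentration required for 50% inhibition of growth.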 Calls of active or inactive are those of the source. Cut-off read from the data, not from the text of the source: active = GI50 up to about 1.1 µM and inactive = higher.

Key:
Experiment in all cases: DTP human tumour cell line panel, 48 h
786-0 = system: 786-0
BT-549 = system: BT-549
CAKI-1 = system: CAKI-1
HCT-15 = system: HCT-15
HL-60 = system: HL-60
Hs-578T = system: Hs-578T
K562 = system: K562
MDA-MB-231 = system: MDA-MB-231
MDA-N = system: MDA-N
Malme-3M = system: Malme-3M
NCI-H522 = system: NCI-H522
NCI/ADR-RES = system: NCI/ADR-RES
OVCAR-4 = system: OVCAR-4
PC-3 = system: PC-3
SF-295 = system: SF-295
SF-539 = system: SF-539
SK-MEL-5 = system: SK-MEL-5
SN12C = system: SN12C
TK-10 = system: TK-10
U-251 = system: U-251

Structure (SMILES) | GI50 (786-0) | GI50 (BT-549) | GI50 (CAKI-1) | GI50 (HCT-15) [µM] | GI50 (HL-60) | GI50 (Hs-578T) | GI50 (K562) | GI50 (MDA-MB-231) | GI50 (MDA-N) | GI50 (Malme-3M) | GI50 (NCI-H522) | GI50 (NCI/ADR-RES) | GI50 (OVCAR-4) | GI50 (PC-3) | GI50 (SF-295) | GI50 (SF-539) | GI50 (SK-MEL-5) | GI50 (SN12C) | GI50 (TK-10) | GI50 (U-251)
COC(=O)C(I(OS(=O)(=O)c1ccc(C)cc1)c1ccccc1)=P(c1ccccc1)(c1ccccc1)c1ccccc1 | 12.4 µM (inactive) | 21.2 µM (inactive) | 40.2 µM (inactive) | 35.3 | 15.1 µM (inactive) | 24.7 µM (inactive) | 12.7 µM (inactive) | 30.1 µM (inactive) | 14.1 µM (inactive) | 7.94 µM (inactive) | 13 µM (inactive) | 64 µM (inactive) | 13.7 µM (inactive) | 18.9 µM (inactive) | 30.1 µM (inactive) | 19.4 µM (inactive) | 12.2 µM (inactive) | 43.2 µM (inactive) | 23.6 µM (inactive) | 20.7 µM (inactive)
CCN(/C=C1/C(=O)C(c2ccccc2)N(c2ccccc2)C1=O)CC (stereo not given) | > 10 µM (inactive) | > 10 µM (inactive) | > 10 µM (inactive) | > 10 | > 10 µM (inactive) | > 10 µM (inactive) | > 10 µM (inactive) | > 10 µM (inactive) | > 10 µM (inactive) | > 10 µM (inactive) | > 10 µM (inactive) | > 10 µM (inactive) | > 10 µM (inactive) | > 10 µM (inactive) | > 10 µM (inactive) | > 10 µM (inactive) | > 10 µM (inactive) | > 10 µM (inactive) | > 10 µM (inactive) | > 10 µM (inactive)
COC(=O)CC(c1cn(S(=O)(=O)c2ccc(C)cc2)c2ccccc12)C1C[C@@H](C(=O)OC)N(C(=O)OC(C)(C)C)C1=O (stereo not given in full) | 63.8 µM (inactive) | > 100 µM (inactive) | 31.7 µM (inactive) | 26.5 | > 100 µM (inactive) | > 100 µM (inactive) | 54.1 µM (inactive) | 22.5 µM (inactive) | 55.8 µM (inactive) | 83.4 µM (inactive) | 55.3 µM (inactive) | 4.89 µM (inactive) | 55.3 µM (inactive) | 47.6 µM (inactive) | 20.9 µM (inactive) | 7.66 µM (inactive) | > 100 µM (inactive) | 32.1 µM (inactive) | > 100 µM (inactive) | 33.9 µM (inactive)
